{"source": "patent US8092838B2", "about": "“Use of hydrogen sulfide in the treatment of eye diseases” (The University of Houston System, priority 2005, dated 2012)", "key": {"[1]": {"system": "isolated porcine iris-ciliary bodies", "format": "cell-based", "settings": "for effect on NaHS-induced inhibition of evoked [3H]NE release: modifier 1 mM, NaHS 1 μM"}, "[2]": {"system": "isolated porcine iris", "assay": "Relaxation of carbachol-induced tone in isolated porcine iris muscle strips", "format": "cell-based"}, "[3]": {"system": "normotensive, conscious albino rabbits", "assay": "Intraocular pressure after topical application in normotensive, conscious albino rabbits (pneumatonometer)", "from_the_text": "A 1% dose of NaHS was applied topically to one eye and the saline vehicle to the other eye.\nThe effect of a generator of H2S in biological tissues (NaHS) on intraocular pressure in normotensive, conscious albino rabbits was examined. In the eyes of a rabbit, the desired intraocular pressure is around 20 mm Hg. While in human, the desired intraocular pressure in the eye is in the range of from about 12 mm Hg to 15 mm Hg. Ranges of about 18 to 24 mm Hg in a human eye are generally considered elevated. Two baseline intraocular pressure measurements were made in nine rabbits using a pneumatonometer (Medtronic, Model 30 Classic, Jacksonville, Fla.) at −1, and 0 hour after topical application of proparacaine 0.5%. NaHS (1%, dissolved in sterile saline solution) was applied topically to one eye of each animal while the saline vehicle was administered to the other (control) eyes. Intraocular pressures were measured in both eyes at +0.5, +1, +3, and +6 hours after instillation of the drug and vehicle."}, "[4]": {"system": "isolated porcine iris-ciliary body", "assay": "Norepinephrine concentration in isolated porcine iris-ciliary body (HPLC)", "format": "cell-based", "settings": "NaHS 30-300 μM", "from_the_text": "The data support results obtained from neurotransmitter release studies which show a decrease in norepinephrine output.\nTo determine the mechanism of action of H2S donors on sympathetic neurotransmitter pools in the anterior uvea, the direct effect of NaHS was studied on catecholamine (norepinephrine, epinephrine and dopamine) concentrations in porcine iris-ciliary bodies using […] Liquid Chromatography techniques. […] Data from this study supports the previous observation that H2S donors can reduce the release of [^3H]NE from isolated porcine irides. It appears that by reducing the availability of the neurotransmitter (norepinephrine), H2S can attenuate sympathetic neurotransmission in porcine anterior uvea."}}, "note": "Read-outs that look alike come from different tables or passages of the source."}
{"compound": "NOCC(=O)O", "note": "[AOA, aminooxyacetic acid, reference compound]", "values": [{"measurement": "effect on NaHS-induced inhibition of evoked [3H]NE release", "setting": "[1]", "result": "blocked the inhibitory response elicited by NaHS"}, {"measurement": "shift of concentration-response curves to NaHS", "setting": "[2]; AOA 30 μM", "result": "significant (P<0.001) rightward shifts"}]}
{"compound": "N#CC[C@H](N)C(=O)O", "note": "[BCA, β-cyano-L-alanine]", "values": [{"measurement": "shift of concentration-response curves to NaHS", "setting": "[2]; modifier 1 mM", "result": "shifted concentration-response curves to NaHS to the right"}]}
{"compound": "S", "note": "[NaHS, sodium hydrosulfide]", "values": [{"measurement": "effect on intraocular pressure in the treated eyes", "setting": "[3]; NaHS 1% in sterile saline, topical, one eye, measured +0.5, +1, +3, +6 hours", "result": "time-dependent significant (p<0.001) reduction in intraocular pressure"}, {"measurement": "intraocular pressure in contralateral eyes treated with only the saline vehicle", "setting": "[3]; NaHS 1% topical to the other eye", "result": "parallel (but smaller) decrease in intraocular pressure"}, {"measurement": "hyperemia and/or papillary changes", "setting": "[3]; NaHS 1% topical, experimental and control eyes, all times tested", "result": "No hyperemia and/or papillary changes were observed"}, {"measurement": "time of maximum reduction in intraocular pressure", "setting": "[3]; NaHS 1% topical, treated eyes", "result": 3, "unit": "h"}, {"measurement": "intraocular pressure after 6 hours", "setting": "[3]; NaHS 1% topical, treated eyes, 6 hours", "result": "remained depressed"}, {"measurement": "stimulation-evoked [3H]NE release", "setting": "[1]; 1 μM applied 8 minutes before and during S2", "result": "marked inhibition"}, {"measurement": "electrically-evoked [3H]NE overflow", "setting": "[1]; NaHS 0.1-100 μM", "result": "concentration-dependent inhibition"}, {"measurement": "relaxation of tone induced by a submaximal concentration of carbachol", "setting": "[2]; NaHS 30 nM-100 μM", "result": "concentration-related relaxation"}, {"measurement": "relative potency in eliciting relaxation of tone", "setting": "[2]; NaHS versus Na2S", "result": "more potent than Na2S"}, {"measurement": "IC50", "setting": "[2]; Sus scrofa, concentration range 30 nM to 300 μM", "result": 7, "unit": "µM"}, {"measurement": "norepinephrine concentrations in the isolated porcine iris-ciliary body", "setting": "[4]", "result": "concentration-dependent decrease"}]}
{"compound": "C#CCC(N)C(=O)O", "note": "(stereo not shown) [PAG, propargylglycine, reference compound]", "values": [{"measurement": "effect on NaHS-induced inhibition of evoked [3H]NE release", "setting": "[1]", "result": "blocked the inhibitory response elicited by NaHS"}, {"measurement": "shift of concentration-response curves to NaHS", "setting": "[2]; modifier 1 mM", "result": "shifted concentration-response curves to NaHS to the right"}]}
{"compound": "C[S+](CC[C@H](N)C(=O)O)C[C@H]1O[C@@H](n2cnc3c(N)ncnc32)[C@H](O)[C@@H]1O", "note": "(stereo partly drawn) [SAM, S-adenosyl-L-methionine]", "values": [{"measurement": "effect on relaxations induced by the higher concentration of NaHS", "setting": "[2]", "result": "attenuated"}, {"measurement": "shift of NaHS concentration-response curve", "setting": "[2]", "result": "significant leftward shift"}]}
{"compound": "COc1ccc(Cl)cc1C(=O)NCCc1ccc(S(=O)(=O)NC(=O)NC2CCCCC2)cc1", "note": "[glibenclamide]", "values": [{"measurement": "shift of concentration-response curves to NaHS", "setting": "[2]; glibenclamide 300 μM", "result": "significant rightward shift"}]}
{"compound": "sodium sulfide [Na2S]", "values": [{"measurement": "basal tritium efflux", "setting": "[1]", "result": "without affecting basal tritium efflux"}, {"measurement": "electrically-evoked [3H]NE release", "setting": "[1]", "result": "concentration-dependent inhibition"}, {"measurement": "IC50", "setting": "[2]", "result": 70, "unit": "µM"}]}
